Data reported in patent US20050250850A1, “Amino acid composition promoting collagen synthesis” (Ajinomoto Co., Inc., priority 2004, published 2005).

System: collagen synthesis in skin
Assay: Rate of collagen synthesis in rat skin (incorporation of stable isotope-labelled L-phenylalanine into collagen)
Assay type: in vivo, SD (IGS) male rats
Settings: rats fed protein-free food for one week, continuous administration into the jugular vein for approx. three and a half hours, neutral-salt-soluble newly synthesized collagen, t-test vs saline, * p<0.05, FIG. 1
Description: SD (IGS) male rats consisting of 4 to 6 individuals per group were fed protein-free food (0% casein) for one week to groups of, after which the rats were used in the following experiments.
The administration fluids were each administered continuously into the jugular vein for approximately three and a half hours. Stable isotope-labelled L-phenylalanine was used to determine the rate of collagen synthesis by measuring the labelled percentage of stable isotope-labelled L-phenylalanine that had been incorporated in collagen protein within a fixed period of time. Skin was used as the tissue, and fractions of newly synthesized collagen dissoluble in a neutral salt solution were used as the collagen.
The group administered with physiological saline was used as the control, and assay was conducted by t-test. The symbol * in the figure represents p<0.05. […] Rate of collagen synthesis=ΔEt/ΔEf/ΔT (1) • ΔEt: labelled percentage of the phenylalanine in collagen fractions per unit time • ΔEf: labelled percentage of the free phenylalanine in the skin tissue fluid per unit time • ΔT: unit time

## NC(=O)CC[C@H](N)C(=O)O [L-glutamine]
  rate of collagen synthesis in comparison with the group administered with physiological saline: enhancement from saline was not observed
